From PMC12446003, “Pharmacological characterization of linaprazan glurate (X842), a novel potassium-competitive acid blocker, in vitro and in vivo” (Frontiers in Pharmacology, 2025)
“And” between values parts separate entries of the source, which are not always exact repeats. Identical values can stand only once. Like-named read-outs stand apart in the source and are kept apart here.

What was measured:
[1] = biological target: T1, Gastric H+/K+-ATPase (Oryctolagus cuniculus, UniProt P27112); test: Inhibition of H+/K+-ATPase activity (Malachite Green Pi assay); type: biochemical, rabbit
T1 construct: Gastric H^+/K^+-ATPase was prepared from rabbit glands; from tissue; host or cells: rabbit gastric glands
T1 sequence (P27112 whole entry): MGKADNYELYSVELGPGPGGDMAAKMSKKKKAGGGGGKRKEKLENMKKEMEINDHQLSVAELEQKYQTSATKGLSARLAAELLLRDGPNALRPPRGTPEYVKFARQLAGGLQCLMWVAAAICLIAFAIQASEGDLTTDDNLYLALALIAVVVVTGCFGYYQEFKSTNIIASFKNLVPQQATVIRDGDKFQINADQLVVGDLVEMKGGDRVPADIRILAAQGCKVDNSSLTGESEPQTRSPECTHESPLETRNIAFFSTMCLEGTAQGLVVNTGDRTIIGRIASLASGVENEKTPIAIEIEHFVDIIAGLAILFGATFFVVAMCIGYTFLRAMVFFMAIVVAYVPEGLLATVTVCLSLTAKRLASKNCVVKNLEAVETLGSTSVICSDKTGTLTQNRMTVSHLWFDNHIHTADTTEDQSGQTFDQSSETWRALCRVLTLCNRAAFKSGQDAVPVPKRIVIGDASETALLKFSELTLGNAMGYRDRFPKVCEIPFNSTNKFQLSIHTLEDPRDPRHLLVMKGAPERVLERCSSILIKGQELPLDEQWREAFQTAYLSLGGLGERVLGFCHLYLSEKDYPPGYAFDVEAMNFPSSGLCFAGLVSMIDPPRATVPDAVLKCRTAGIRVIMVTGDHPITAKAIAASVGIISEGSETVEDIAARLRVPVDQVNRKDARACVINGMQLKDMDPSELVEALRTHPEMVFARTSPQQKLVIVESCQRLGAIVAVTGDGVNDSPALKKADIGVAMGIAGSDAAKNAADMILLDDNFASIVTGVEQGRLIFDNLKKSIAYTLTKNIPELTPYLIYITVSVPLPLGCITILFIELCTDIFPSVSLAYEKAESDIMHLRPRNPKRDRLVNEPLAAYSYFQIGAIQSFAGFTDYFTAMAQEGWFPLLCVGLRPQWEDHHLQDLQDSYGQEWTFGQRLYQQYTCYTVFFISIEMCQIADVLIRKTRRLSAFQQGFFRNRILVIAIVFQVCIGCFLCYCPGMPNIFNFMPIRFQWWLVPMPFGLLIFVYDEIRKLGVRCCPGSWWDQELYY
T1 sequence (P18597 whole entry partner): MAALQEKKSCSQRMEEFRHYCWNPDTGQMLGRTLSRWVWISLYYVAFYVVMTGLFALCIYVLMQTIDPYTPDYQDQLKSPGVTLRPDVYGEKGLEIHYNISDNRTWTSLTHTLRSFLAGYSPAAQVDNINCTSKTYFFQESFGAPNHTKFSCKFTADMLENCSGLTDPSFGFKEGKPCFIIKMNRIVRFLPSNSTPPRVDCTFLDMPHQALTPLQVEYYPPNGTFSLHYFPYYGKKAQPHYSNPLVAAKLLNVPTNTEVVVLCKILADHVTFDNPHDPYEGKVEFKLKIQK
Method: The H^+/K^+-ATPase inhibition reaction was performed in buffer (50 mM Tris-HCl, 5 mM magnesium chloride, 10 μM valinomycin, pH 6.5) with or without 20 mM potassium chloride (KCl), and inorganic phosphate (Pi) was detected using Malachite Green solution, made from 0.1% malachite green, 1.5% hexaammonium molybdate, and 0.2% Tween-20 in a ratio of 100:25:2 ([Skou, 1982]; [Feng et al., 2011]). Gastric H^+/K^+-ATPase was prepared from rabbit glands, as described previously ([Kondo et al., 2012]; [Arikawa et al., 2012]). The reaction occurred in a 96-well plate with a total volume of 50 µL/well, including buffer, enzyme, ATP, and drug. After 30 min at 37 °C for enzyme stability, ATP was added at 0.2 mM to start the reaction, which was optimized from the titration experiments. The reaction lasted 20 min at 37 °C, followed by the addition of Malachite Green for the colorimetric assay. The enzyme control wells contained the full enzyme system, while the buffer control wells contained only buffer to correct for background values. Absorbance was measured at 620 nm using a plate reader (SpectraMax M5). The inhibition rate was calculated using the following formula, accounting for the enzyme activity in the presence and absence of K^+: Inhibition Rate %=ODwith K+and enzyme,without drug−ODwith K+and enzyme,with drug /ODwith K+and enzyme,without drug−ODwithout K+and enzyme,without drug×100 where “OD with K^+ and enzyme, without drug” is the optical density measured at 620 nm in the presence of K^+ and enzyme, without the tested drug (enzyme control wells); “OD with K^+ and enzyme, with drug” is the optical density measured at 620 nm in the presence of K^+ and enzyme, with the tested drug; and “OD without K^+ and enzyme, without drug” is the optical density measured at 620 nm in the absence of K^+ and enzyme, without the tested drug (buffer control wells).

[2] = system: gastric acid secretion in pylorus-ligated rats; test: Gastric acid inhibition in pylorus-ligated rats; type: in vivo; details: oral 2 mg/kg, pylorus-ligated rats, relative to vehicle
Method: The rats were fasted overnight with ad libitum access to water. Drugs and vehicle were administered orally to rats in a blinded manner. The pylorus was ligated under ether anesthesia within 1 h after drug and vehicle administration, and the abdomen was closed by suturing. At 4 h after pyloric ligation, the rats were sacrificed by CO2 asphyxiation, and the stomach was removed ([Hori et al., 2010]). The gastric contents were collected and centrifuged at 3,000 rpm for 10 min. The volume of each sample was measured, the gastric acid concentration was determined by acid-base titration, and the total acidity was calculated.

Inhibitory effect on H+/K+-ATPase in the absence of K+ ([1]; absence of K+): No measurable inhibitory effect
IC50 ([1]; in the presence of K+ (20 mM KCl), pH 6.5, read-out: IC50, H+/K+-ATPase inhibition): 17 nM and 17.1 nM
IC50 ([1]; in the presence of potassium ions, rabbit gastric glands, read-out: IC50 (Figure 7A)): 17.1 nM
Structure (SMILES): CNCc1cc(-c2ccccc2F)n(S(=O)(=O)c2cccnc2)c1 [vonoprazan, 1-[5-(2-fluorophenyl)-1-(pyridin-3-ylsulfonyl)-1H-pyrrol-3-yl]-N-methylmethanamine]
Total acidity inhibitory rate (%) [2]: 47%
